Laboratory results reported in PubChem BioAssay AID330 (DTP/NCI, 2004).
“And” between values parts separate entries of the source, which are not always exact repeats. Equal entries are not always repeated. Toxic doses and inconclusive results are not listed. How the source made its calls: active means survival T/C of 150% or more; inactive means T/C below 125% in these data.

Tested on: P388 leukemia ip, CD2F1 mice, survival T/C
Assay: NCI In Vivo Anticancer Drug Screen. Data for tumor model P388 Leukemia (intraperitoneal) in CD2F1 (CDF1) mice
Conditions: endpoint: median survival time, higher = longer survival
Summary of the method: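 Mice carrying the transplanted tumor received test compound or vehicle. Survival was recorded in each group, and the value is the treated-group measurement divided by that of the vehicle-treated control group.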

[1] = dose: 100.0 mg/kg/injection, schedule: Q04DX003 (ip), vehicle: Klucel (hydroxypropylcellulose) (HPC)
[2] = dose: 200.0 mg/kg/injection, schedule: Q04DX003 (ip), vehicle: Klucel (hydroxypropylcellulose) (HPC)
[3] = dose: 50.0 mg/kg/injection, schedule: Q01DX009 (ip), vehicle: saline
[4] = dose: 50.0 mg/kg/injection, schedule: Q01DX005 (ip), vehicle: saline with Tween-80
[5] = dose: 100.0 mg/kg/injection, schedule: Q01DX005 (ip), vehicle: saline with Tween-80
[6] = dose: 200.0 mg/kg/injection, schedule: Q01DX005 (ip), vehicle: saline with Tween-80

Measured: T/C

O=C1C2=C(Nc3cc([N+](=O)[O-])ccc3N2)OC1c1cccc([N+](=O)[O-])c1 (stereo not drawn)
inactive: dose: 60.0 mg/kg/injection, schedule: Q01DX005 (ip), vehicle: Klucel (hydroxypropylcellulose) (HPC) 97 % of control | dose: 120.0 mg/kg/injection, schedule: Q01DX005 (ip), vehicle: Klucel (hydroxypropylcellulose) (HPC) 96 % of control | dose: 240.0 mg/kg/injection, schedule: Q01DX005 (ip), vehicle: Klucel (hydroxypropylcellulose) (HPC) 102 % of control

O=C1CC2(C(=O)N1)c1ccccc1-c1ccccc12
inactive: dose: 50.0 mg/kg/injection, schedule: Q01DX009 (ip), vehicle: saline with Tween-80 96 % of control | dose: 100.0 mg/kg/injection, schedule: Q01DX009 (ip), vehicle: saline with Tween-80 103 % of control | dose: 200.0 mg/kg/injection, schedule: Q01DX009 (ip), vehicle: saline with Tween-80 119 % of control

NCCN1C(=O)C2C3CCC(O3)C2C1=O (stereo not drawn)
inactive: dose: 60.0 mg/kg/injection, schedule: Q01DX005 (ip), vehicle: saline with Tween-80 96 % of control | dose: 120.0 mg/kg/injection, schedule: Q01DX005 (ip), vehicle: saline with Tween-80 98 % of control | dose: 240.0 mg/kg/injection, schedule: Q01DX005 (ip), vehicle: saline with Tween-80 107 % of control

NC(=S)N/N=C/c1cn(-c2ccccc2[N+](=O)[O-])cn1
inactive: [1] 103 % of control | [2] 90 % of control

NC(=S)c1cccc(/C=N/O)n1
inactive: dose: 50.0 mg/kg/injection, schedule: Q04DX003 (ip), vehicle: Klucel (hydroxypropylcellulose) (HPC) 104 % of control | [1] 99 % of control | [2] 95 % of control

O=C(CCN1CCCC1)c1ccccc1
inactive: dose: 12.5 mg/kg/injection, schedule: Q01DX009 (ip), vehicle: saline 98 % of control | dose: 25.0 mg/kg/injection, schedule: Q01DX009 (ip), vehicle: saline 100 % of control | [3] 100 % of control

COCN(C)N=Nc1ccc(Br)cc1
inactive: [4] 95 % of control | [5] 103 % of control | [6] 102 % of control

CC(NNC(=S)N(C)C1CCCCC1)c1nccc2ccccc12 (stereo not drawn)
inactive: dose: 30.12 mg/kg/injection, schedule: Q01DX001 (ip), vehicle: Klucel (hydroxypropylcellulose) (HPC) 101 % of control and 102 % of control | dose: 60.25 mg/kg/injection, schedule: Q01DX001 (ip), vehicle: Klucel (hydroxypropylcellulose) (HPC) 103 % of control and 107 % of control and 108 % of control | dose: 120.5 mg/kg/injection, schedule: Q01DX001 (ip), vehicle: Klucel (hydroxypropylcellulose) (HPC) 114 % of control and 115 % of control | dose: 241.0 mg/kg/injection, schedule: Q01DX001 (ip), vehicle: Klucel (hydroxypropylcellulose) (HPC) 108 % of control and 113 % of control

O=C(NN(Cc1ccccc1)S(=O)(=O)c1ccccc1)c1ccccc1
inactive: [4] 101 % of control | [5] 107 % of control | [6] 103 % of control

COc1cc(O)c2c(c1O)C1(C)C(=O)CCCC1(O)CC2=O (stereo not drawn)
inactive: dose: 100.0 mg/kg/injection, schedule: Q01DX001 (ip), vehicle: saline with Tween-80 90 % of control | dose: 200.0 mg/kg/injection, schedule: Q01DX001 (ip), vehicle: saline with Tween-80 100 % of control | dose: 400.0 mg/kg/injection, schedule: Q01DX001 (ip), vehicle: saline with Tween-80 100 % of control

O=C(O)CCc1ccc(O)c(O)c1
inactive: [3] 102 % of control and 111 % of control | dose: 100.0 mg/kg/injection, schedule: Q01DX009 (ip), vehicle: saline 100 % of control and 111 % of control | dose: 200.0 mg/kg/injection, schedule: Q01DX009 (ip), vehicle: saline 108 % of control and 110 % of control | dose: 400.0 mg/kg/injection, schedule: Q01DX009 (ip), vehicle: saline 111 % of control and 115 % of control

CC1=C(C)C(=O)c2nn(C)nc2C1=O
inactive: dose: 6.25 mg/kg/injection, schedule: Q01DX001 (ip), vehicle: saline 100 % of control | dose: 12.5 mg/kg/injection, schedule: Q01DX001 (ip), vehicle: saline 98 % of control | dose: 25.0 mg/kg/injection, schedule: Q01DX001 (ip), vehicle: saline 99 % of control

CCOC(=O)N1Cc2cc3ccccc3nc2C1CC(=O)O (stereo not drawn)
inactive: dose: 200.0 mg/kg/injection, schedule: Q01DX009 (ip), vehicle: Klucel (hydroxypropylcellulose) (HPC) 95 % of control | dose: 400.0 mg/kg/injection, schedule: Q01DX009 (ip), vehicle: Klucel (hydroxypropylcellulose) (HPC) 104 % of control

OC1CNCc2cc3c(cc21)OCO3 (stereo not drawn)
inactive: dose: 60.0 mg/kg/injection, schedule: Q01DX005 (ip), vehicle: saline 110 % of control | dose: 120.0 mg/kg/injection, schedule: Q01DX005 (ip), vehicle: saline 107 % of control | dose: 240.0 mg/kg/injection, schedule: Q01DX005 (ip), vehicle: saline 100 % of control

O=C1CCC2=C1C(c1ccccc1)C1=C(CCC1=O)O2
inactive: dose: 100.0 mg/kg/injection, schedule: Q04DX002 (ip), vehicle: Klucel (hydroxypropylcellulose) (HPC) 100 % of control | dose: 200.0 mg/kg/injection, schedule: Q04DX002 (ip), vehicle: Klucel (hydroxypropylcellulose) (HPC) 100 % of control | dose: 400.0 mg/kg/injection, schedule: Q04DX002 (ip), vehicle: Klucel (hydroxypropylcellulose) (HPC) 111 % of control

Nc1cc2[nH]c(=O)oc2cc1Cl
inactive: dose: 50.0 mg/kg/injection, schedule: Q01DX005 (ip), vehicle: Klucel (hydroxypropylcellulose) (HPC) 94 % of control | dose: 100.0 mg/kg/injection, schedule: Q01DX005 (ip), vehicle: Klucel (hydroxypropylcellulose) (HPC) 100 % of control | dose: 200.0 mg/kg/injection, schedule: Q01DX005 (ip), vehicle: Klucel (hydroxypropylcellulose) (HPC) 94 % of control
